From ChEMBL document CHEMBL3046110, “Screening and evaluation of thiourea derivatives for their HIV capsid and human cyclophilin A inhibitory activity” (Med Chem Res, 2011)

Legend:
[1] = Cytotoxicity against Homo sapiens (human) CEM174 by MTT assay; details: CEM174 cells, read-out: TC50 (the source's name)
[2] = system: Simian immunodeficiency virus; assay: Antiviral activity against Simian immunodeficiency virus infected CEM174 cells assessed as inhibition of virus-induced syncytium after 5 days by microscopic analysis; type: functional, organism-based; details: CEM174, 120 h
[3] = Toxicity index, ratio of TC50 for human CEM174 cells to EC50 for Simian immunodeficiency virus; type: cell-based; details: read-out: TI
[4] = target: Structural capsid protein (Human immunodeficiency virus 1) (UniProt Q76129); assay: Inhibition of Human immunodeficiency virus 1 capsid protein expressed in Escherichia coli BL21(DE3) assessed as capsid assembly rate measured every 5 secs by spectrofluorometric analysis (reference value: 51.88 x 10^-5 OD/s)
[5] = target: T1, Peptidyl-prolyl cis-trans isomerase A (Homo sapiens, UniProt P62937); assay: Inhibition of Homo sapiens (human) cyclophilin A PPIase activity expressed in Escherichia coli BL21(DE3) using Suc-AAPF-pNA as substrate measured after 6 secs for 20 secs by spectrophotometric analysis
[6] = target: T1, Peptidyl-prolyl cis-trans isomerase A; assay: Binding affinity to Homo sapiens (human) cyclophilin A expressed in Escherichia coli BL21(DE3) by fluorescence titration assay

T1 sequence (P62937 whole entry): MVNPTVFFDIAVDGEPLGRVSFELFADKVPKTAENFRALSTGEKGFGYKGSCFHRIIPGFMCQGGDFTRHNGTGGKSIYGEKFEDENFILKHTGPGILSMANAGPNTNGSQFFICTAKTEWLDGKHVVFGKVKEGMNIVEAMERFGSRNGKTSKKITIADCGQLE
Sequence of Structural capsid protein (Human immunodeficiency virus 1) (Q76129 as listed by the source): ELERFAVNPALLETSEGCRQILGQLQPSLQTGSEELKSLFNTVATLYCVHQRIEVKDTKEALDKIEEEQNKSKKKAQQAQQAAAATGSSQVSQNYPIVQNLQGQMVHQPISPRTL

Structure (SMILES)	CC50 [1]	EC50 [2]	selectivity ratio [3]	Activity [4]	IC50 ([5]; read-out: IC50)	IC50 [5]	Kd [6]
Cc1ccc(NS(=O)(=O)c2ccc(NC(=S)Nc3ccc(Cl)cc3)cc2)cc1	77.5 µM	4.1 µM	19	13.3 ×10⁻⁵ OD/s			
Cc1cc(NS(=O)(=O)c2ccc(NC(=S)Nc3cccc(Cl)c3)cc2)no1		1 µM	92	7.97 ×10⁻⁵ OD/s			
COc1ccc(NC(=S)Nc2ccc3c(c2)C(=O)OC3)cc1		9.7 µM	20		0.92 µM		
O=C1OCc2ccc(NC(=S)Nc3cccc(F)c3)cc21		6.3 µM	10		0.74 µM		
CCN(CC)c1nc(C)c([N+](=O)[O-])c(NC(=S)Nc2cccc(F)c2)n1	> 100 µM	3.8 µM	> 26.3	20.7 ×10⁻⁵ OD/s			
CCN(CC)c1nc(C)cc(NC(=S)Nc2cccc(Br)c2)n1	8.4 µM	5.5 µM	> 1.5			Not Active	200 µM
CCN(CC)c1nc(C)c([N+](=O)[O-])c(NC(=S)Nc2cccc(Cl)c2)n1	31.5 µM	3.7 µM	8.6	21.2 ×10⁻⁵ OD/s			
Cc1ccc(NC(=O)NCCSCc2ccc(CN(C)C)o2)cc1Cl				26.5 ×10⁻⁵ OD/s			
CCN(CC)c1nc(C)c([N+](=O)[O-])c(NC(=S)Nc2cccc(Br)c2)n1	26.2 µM	7.4 µM	3.5		0.81 µM		79.3 µM
Cc1cc(NS(=O)(=O)c2ccc(NC(=S)Nc3cccc(F)c3)cc2)no1		11.6 µM	8	38.5 ×10⁻⁵ OD/s	0.88 µM		
CCN(CC)c1nc(C)c([N+](=O)[O-])c(NC(=S)Nc2ccc(Cl)cc2)n1	> 100 µM	12 µM	> 8.33	48.9 ×10⁻⁵ OD/s			
Cc1cc(NS(=O)(=O)c2ccc(NC(=S)Nc3ccc(C)c(Cl)c3)cc2)no1		0.6 µM	127	18.4 ×10⁻⁵ OD/s			
Cc1cccc(NC(=S)Nc2ccc3c(c2)C(=O)OC3)c1		11.6 µM	1	32.7 ×10⁻⁵ OD/s		Not Active	
O=S(=O)(Nc1nccs1)c1ccc(NC(=S)Nc2ccc(Cl)cc2)cc1		0.7 µM	3				
CCN(CC)c1nc(C)c([N+](=O)[O-])c(NC(=S)Nc2ccc(C)c(Cl)c2)n1	> 100 µM	6.3 µM	> 14.1		0.74 µM		73.3 µM
Cc1cc(NS(=O)(=O)c2ccc(NC(=S)Nc3ccc(Cl)cc3)cc2)no1		4.1 µM	9	14.7 ×10⁻⁵ OD/s			
Cc1cc(NS(=O)(=O)c2ccc(NC(=S)Nc3cccc(Br)c3)cc2)no1		0.9 µM	66	15.8 ×10⁻⁵ OD/s			
Cc1ccc(NC(=S)Nc2ccc3c(c2)C(=O)OC3)cc1Cl		4.6 µM	4	9.9 ×10⁻⁵ OD/s			
O=C1OCc2ccc(NC(=S)Nc3ccccc3)cc21	36.3 µM	1.3 µM	28	25.5 ×10⁻⁵ OD/s			
COc1ccc(NC(=S)Nc2ccc(S(=O)(=O)Nc3cc(C)on3)cc2)cc1		1.5 µM	27	20.2 ×10⁻⁵ OD/s			
Cc1cc(NS(=O)(=O)c2ccc(NC(=S)Nc3ccccc3C)cc2)no1		6.2 µM	8				
